Assay results taken from patent US12338256B2, “Aza-tetracyclic oxazepine compounds and uses thereof” (Genentech, Inc., priority 2022, dated 2025).

Assays:
[1] = tested on: H1975 (KRAS wild type human lung adenocarcinoma cell line); test: KRAS 3D-Cell Proliferation Assay, H1975 (Example 503); type: cell-based; details: Homo sapiens, NCI-H1975, 168 h, H1975 3D culture, 7 days, CellTiter-Glo 3D; read-out: Prolif H1975 3D ATP IC50
Outline: (§1)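 IC50 values derive from 4-parameter Hill fits of normalized luminescence, where DMSO sets 0% and 1 μM staurosporine 100% inhibition. 3D cultures in RPMI-1640 with 10% fetal bovine serum were exposed to compound for 7 days before CellTiter-Glo 3D lysis.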

[2] = tested on: HPAC (homozygous mutant KRAS G12D human pancreatic cell line); test: KRAS 3D-Cell Proliferation Assay, HPAC (Example 503); type: cell-based; details: Homo sapiens, HPAC, 168 h, HPAC 3D culture, 7 days, CellTiter-Glo 3D; read-out: Prolif HPAC 3D ATP IC50
Outline: as §1

SMILES: Cc1c(F)c(N)cc(-c2nc3c4c(nc(OCCCN5C[C@H]6C[C@@H]5CO6)nc4c2F)N2C[C@H]4CC[C@H](N4)[C@H]2[C@H](C)O3)c1C(F)(F)F [Compound 163, 5-((5S,5aS,6S,9R)-12-(3-((1R,4R)-2-Oxa-5-azabicyclo[2.2.1]heptan-5-yl)propoxy)-1-fluoro-5-methyl-5a,6,7,8,9,10-hexahydro-5H-4-oxa-3,10a,11,13,14-pentaaza-6,9-methanonaphtho[1,8-ab]heptalen-2-yl)-2-fluoro-3-methyl-4-(trifluoromethyl)aniline]
- IC50 [1]: 1140 nM
- IC50 [2]: 10.2 nM

SMILES: CO[C@H]1CN(CC2(COc3nc4c5c(nc(-c6cc(N)nc(C)c6C(F)(F)F)c(F)c5n3)O[C@@H](C)[C@@H]3[C@@H]5CC[C@H](CN43)N5)CC2)C[C@@H]1F [Compound 291, 4-((5S,5aS,6S,9R)-1-fluoro-12-((1-(((3S,4S)-3-fluoro-4-methoxypyrrolidin-1-yl)methyl)cyclopropyl)methoxy)-5-methyl-5a,6,7,8,9,10-hexahydro-5H-4-oxa-3,10a,11,13,14-pentaaza-6,9-methanonaphtho[1,8-ab]heptalen-2-yl)-6-methyl-5-(trifluoromethyl)pyridin-2-amine]
- IC50 [1]: 12200 nM
- IC50 [2]: 4.09 nM

SMILES: Cc1c(F)c(N)cc(-c2nc3c4c(nc(OCC5CCC6CC(F)(F)CCN56)nc4c2F)N2CC4CCC(N4)C2C(C)O3)c1C(F)(F)F (single isomer, unassigned) [119 (isomer 1)]
- IC50 [1]: 3150 nM
- IC50 [2]: 76.7 nM

SMILES: Cc1c(F)c(N)cc(-c2nc3c4c(nc(OCC5(CN6CC(F)C6)CC5)nc4c2F)N2C[C@H]4CC[C@H](N4)[C@H]2[C@H](C)O3)c1C(F)(F)F [Compound 173, 2-Fluoro-5-((5S,5aS,6S,9R)-1-fluoro-12-((1-((3-fluoroazetidin-1-yl)methyl)cyclopropyl)methoxy)-5-methyl-5a,6,7,8,9,10-hexahydro-5H-4-oxa-3,10a,11,13,14-pentaaza-6,9-methanonaphtho[1,8-ab]heptalene-2-yl)-3-methyl-4-(trifluoromethyl)aniline]
- IC50 [1]: 917 nM
- IC50 [2]: 1.33 nM

SMILES: C#Cc1c(F)ccc2cc(N)cc(-c3nc4c5c(nc(OC[C@]67CCN6CC(F)(F)C7)nc5c3F)N3C[C@H]5CC[C@H](N5)[C@H]3[C@H](C)O4)c12 [Compound 110, 4-((5S,5aS,6S,9R)-12-(((R)-3,3-Difluoro-1-azabicyclo[3.2.0]heptan-5-yl)methoxy)-1-fluoro-5-methyl-5a,6,7,8,9,10-hexahydro-5H-4-oxa-3,10a,11,13,14-pentaaza-6,9-methanonaphtho[1,8-ab]heptalen-2-yl)-5-ethynyl-6-fluoronaphthalen-2-amine]
- IC50 [1]: 587 nM
- IC50 [2]: 2.58 nM

SMILES: Cc1nc(N)c(F)c(-c2nc3c4c(nc(OCC5(CN6C[C@@H]7C[C@H]6CO7)CC5)nc4c2F)N2C[C@H]4CC[C@H](N4)[C@H]2[C@H](C)O3)c1C(F)(F)F [Compound 222, 4-((5S,5aS,6S,9R)-12-((1-(((1S,4S)-2-Oxa-5-azabicyclo[2.2.1]heptan-5-yl)methyl)cyclopropyl)methoxy)-1-fluoro-5-methyl-5a,6,7,8,9,10-hexahydro-5H-4-oxa-3,10a,11,13,14-pentaaza-6,9-methanonaphtho[1,8-ab]heptalene-2-yl)-3-fluoro-6-methyl-5-(trifluoromethyl)pyridin-2-amine]
- IC50 [1]: 1480 nM
- IC50 [2]: 5.76 nM

SMILES: Cc1cc(N)c(F)c(-c2nc3c4c(nc(OC[C@@]56CCCN5C[C@H](F)C6)nc4c2F)N2C[C@H]4CC[C@H](N4)[C@H]2[C@H](C)O3)c1I [Compound 108, 2-Fluoro-3-((5S,5aS,6S,9R)-1-fluoro-12-(((2R,7aS)-2-fluorotetrahydro-1H-pyrrolizin-7a(5H)-yl)methoxy)-5-methyl-5a,6,7,8,9,10-hexahydro-5H-4-oxa-3,10a,11,13,14-pentaaza-6,9-methanonaphtho[1,8-ab]heptalen-2-yl)-4-iodo-5-methylaniline]
- IC50 [1]: 772 nM
- IC50 [2]: 2.85 nM

SMILES: Cc1nc(N)cc(-c2nc3c4c(nc(OC[C@]56CCCN5CC(F)(F)C6)nc4c2F)N2C[C@H]4CC[C@H](N4)[C@H]2[C@H](C)O3)c1C(F)(F)F [Compound 217, 4-((5S,5aS,6S,9R)-12-(((R)-2,2-difluorotetrahydro-1H-pyrrolizin-7a(5H)-yl)methoxy)-1-fluoro-5-methyl-5a,6,7,8,9,10-hexahydro-5H-4-oxa-3,10a,11,13,14-pentaaza-6,9-methanonaphtho[1,8-ab]heptalen-2-yl)-6-methyl-5-(trifluoromethyl)pyridin-2-amine]
- IC50 [1]: 12600 nM
- IC50 [2]: 38.8 nM

SMILES: Cc1c(F)c(N)cc(-c2nc3c4c(nc(OC[C@@]56CCCN5CCN(C)C6=O)nc4c2F)N2C[C@H]4CC[C@H](N4)[C@H]2[C@H](C)O3)c1C(F)(F)F (single isomer, unassigned) [137 (isomer 1)]
- IC50 [1]: 20000 nM
- IC50 [2]: 127 nM

SMILES: Cc1c(F)c(N)cc(-c2nc3c4c(nc(OC[C@@]56CCCN5C[C@H](F)C6)nc4c2F)N2C[C@H]4CC[C@H](N4)[C@H]2[C@H](C)O3)c1S(C)(=O)=O [Compound 180, 2-Fluoro-5-((5S,5aS,6S,9R)-1-fluoro-12-(((2R,7aS)-2-fluorotetrahydro-1H-pyrrolizin-7a(5H)-yl)methoxy)-5-methyl-5a,6,7,8,9,10-hexahydro-5H-4-oxa-3,10a,11,13,14-pentaaza-6,9-methanonaphtho[1,8-ab]heptalene-2-yl)-3-methyl-4-(methylsulfonyl)aniline]
- IC50 [1]: 20000 nM
- IC50 [2]: 2000 nM

SMILES: Cc1c(F)c(N)cc(-c2nc3c4c(nc(OCC5CC6COCCN65)nc4c2F)N2C[C@H]4CC[C@H](N4)[C@H]2[C@H](C)O3)c1C(F)(F)F (mixture of isomers) [159 (mixture), 5-((5S,5aS,6S,9R)-12-((4-Oxa-1-azabicyclo[4.2.0]octan-8-yl)methoxy)-1-fluoro-5-methyl-5a,6,7,8,9,10-hexahydro-5H-4-oxa-3,10a,11,13,14-pentaaza-6,9-methanonaphtho[1,8-ab]heptalen-2-yl)-2-fluoro-3-methyl-4-(trifluoromethyl)aniline]
- IC50 [1]: 3740 nM
- IC50 [2]: 17.9 nM

SMILES: Cc1nc(N)cc(-c2nc3c4c(nc(OC[C@@]56CCN5CC(F)(F)C6)nc4c2F)N2C[C@H]4CC[C@H](N4)[C@H]2[C@H](C(F)(F)F)O3)c1C(F)(F)F (single isomer, unassigned) [252 (isomer 1)]
- IC50 [1]: 7710 nM
- IC50 [2]: 20.4 nM

SMILES: Cc1nc(N)cc(-c2nc3c4c(nc(OCC5(CN6CC7(CCC7(F)F)C6)CC5)nc4c2F)N2C[C@H]4CC[C@H](N4)[C@H]2[C@H](C)O3)c1C(F)(F)F [Compound 285, 4-((5S,5aS,6S,9R)-12-((1-((5,5-difluoro-2-azaspiro[3.3]heptan-2-yl)methyl)cyclopropyl)methoxy)-1-fluoro-5-methyl-5a,6,7,8,9,10-hexahydro-5H-4-oxa-3,10a,11,13,14-pentaaza[6,9]methanonaphtho[1,8-ab]heptalene-2-yl)-6-methyl-5-(trifluoromethyl)pyridin-2-amine]
- IC50 [1]: 608 nM
- IC50 [2]: 3.05 nM

SMILES: C[C@@H]1Oc2nc(-c3cc(N)cc4c3CCC4)c(F)c3nc(OC[C@@]45CCCN4C[C@H](F)C5)nc(c23)N2C[C@H]3CC[C@H](N3)[C@@H]12 [Compound 83, 7-((5S,5aS,6S,9R)-1-Fluoro-12-(((2R,7aS)-2-fluorotetrahydro-1H-pyrrolizin-7a(5H)-yl)methoxy)-5-methyl-5a,6,7,8,9,10-hexahydro-5H-4-oxa-3,10a,11,13,14-pentaaza-6,9-methanonaphtho[1,8-ab]heptalen-2-yl)-2,3-dihydro-1H-inden-5-amine]
- IC50 [1]: 2230 nM
- IC50 [2]: 23.7 nM
